Data set [1] in a line: Singlet oxygen quantum yield and lifetime (1270 nm phosphorescence in D2O) under magnetic field. Format: physicochemical. As to conditions: for τΔ (lifetime of singlet oxygen): RB 10 μmol/L in D2O. On the procedure:
(4) Singlet oxygen (^1O2), quantum yield (ΦΔ) and lifetime (τΔ) are measured by the following experiment. The phosphorescence of singlet oxygen (^1O2) generated at 1270 nm is determined in air saturated D2O solution of RB (10 μmol/L). The solution is excited at 561 nm.
The magnetic field effect MFs (ΦΔ,B) is calculated by the following formula: ΦΔ,B=ΦΔ,0×(IB/I0), where IB and I0 are peak areas of emission peaks at a magnetic field strength of B and without magnetic field strength, respectively.
The change rate of the magnetic field effect is:
The lifetime (τΔ) of singlet oxygen (^1O2) is affected by the magnetic field effect is as follows: […]

The next data set deals with HeLa xenograft tumor. The data set is described as follows: HeLa xenograft tumor growth in BALB/c nude mice with photodynamic treatment and magnetic field. The conditions noted are these: RB 1.0 mg/kg intratumoral, 14 days. Format: in vivo. On the procedure:
Twenty-four five-weeks old female BALB/c nude mice are selected, 1×10^6 HeLa cells (in 200 μL 0.01 mol/L PBS buffer) are inoculated subcutaneously into the dorsal right flank of each mouse, and a xenograft tumor model is established (Five-weeks old female BALB/c nude mice are obtained from Beijing Agronomy and housed under standard environmental conditions. All animal procedures are approved by Beijing Agronomy Animal Care and Use Committee). After tumors growing up, 25 μL RB (1.0 mg/kg) or an equal volume of PBS buffer at a concentration of 0.01 mol/L are injected intratumorally.
The treatment conditions for dividing the mice into 8 groups (3 mice each) are as follows: • (1) Injection of PBS buffer-no light-no magnetic field (PBS-dark-0mT); • (2) Injection of PBS buffer-light-no magnetic field (PBS-light-0mT); • (3) Injection of PBS buffer-light-250mT magnetic field (PBS-light-250mT); • (4) Injection of PBS Buffer-Light-800mT magnetic field (PBS-light-800mT); • (5) RB-light-no magnetic field (RB-light-0mT) injection (RB-light-0mT); • (6) Injection of RB-light-100mT magnetic field (RB-light-100mT); • (7) Injection of RB-light-250mT magnetic field (RB-light-250mT); • (8) Inject RB-light-800mT magnetic field (RB-light-800mT).
All groups except group (1) receive light 5 min after injection at wavelength of 400-700 nm and power of 100 mW·cm^−2 and light time of 10 min. The tumor area of mice in groups (3), (4) and (6)-(8) are exposed to static magnetic field by using electromagnet during light exposure.
Test (one): Tumor size is monitored with digital calipers every other day for the following 14 days (peripheral measurements of tumors are performed […]), and tumors are calculated by Volume=Length×Width×[…]. Results for groups (2), (4), (5), (7), (8) are shown in FIG. 16, in which, ** is statistical probability p<0.01; *** is p<0.005, p<0.05 is considered significant. Each group is sacrificed 3 mice on day 14 post-injection, tumor tissues are collected for photographing and weighing, and tumor tissues are removed from groups (2), (3), (4), (5), (7), (8) as shown in FIG. 17; the rate of mass change of the tumor tissue in groups (5), (7), (8) is shown in FIG. 18, and the rate of mass change is (ωB−ω0)/ω0×100%, where ωB is the tumor mass under magnetic field conditions and ω0 is the tumor mass in group (5).

The structures appear in SMILES notation.

For the compound `O=C1OC2(c3cc(I)c(O)c(I)c3Oc3c2cc(I)c(O)c3I)c2c(Cl)c(Cl)c(Cl)c(Cl)c21` [RB, Rose Bengal], the “τΔ (lifetime of singlet oxygen)” value in data set [1] (MF 0 mT) amounted to 66.7 ± 2.8 μs; in data set [1] (MF 30 mT), 65.8 ± 7.1 μs; in data set [1] (MF 50 mT) it was 60.7 ± 2.0 μs; in data set [1] (MF 90 mT), 62.6 ± 3.2 μs; in data set [1] (MF 120 mT), 69.5 ± 4.7 μs; in data set [1] (MF 150 mT), 62.8 ± 0.8 μs. Moreover, the “τΔ (lifetime of singlet oxygen)” value in data set [1] (MF 200 mT) was 65.4 ± 4.5 μs. In addition, the “rate of change of luminescence quantum yield of 1O2” value in data set [1] (RB 10 μmol/L in air saturated D2O, excited at 561 nm, with increasing magnetic field, FIG. 21) was −5% to +10%. The “tumor growth (volume and mass)” value with HeLa xenograft tumor (group (5) RB-light-0mT, 400-700 nm 100 mW·cm−2 10 min) is on record as “inhibition of tumor growth”; in the data set with HeLa xenograft tumor (group (7) RB-light-250mT), “further inhibition of tumor growth”. The “magnetic field effect on tumor growth” value in the data set on HeLa xenograft tumor (group (6) RB-light-100mT) and in the data set on HeLa xenograft tumor (group (8) RB-light-800mT) was “no significant effect on tumor growth” each time.

For the origin of these results see patent US20250041624A1, “METHOD FOR ENHANCING ACTIVITY OF PHOTOSENSITIZER BY MAGNETIC FIELD” (PEKING UNIVERSITY, priority 2021, published 2025).
